Assay results published in patent US11723908B2, “Quinazoline derivatives as antitumor agents” (SUZHOU ZANRONG PHARMA LIMITED, priority 2018, dated 2023).

Each compound was assayed against HER2 (Homo sapiens (Human), UniProt P04626) (assay: BT474 cellular assay (HER2 inhibition), phospho-HER2 ELISA). Details: inhibition of phosphor HER2, BT474 cells, 2 hours compound incubation.
Type: cell-based
Description: Assay a) BT474 Cellular Assay (HER2 Inhibition) Inhibition of phosphor HER2 was determined by enzyme-linked immunosorbent assay (ELISA) in BT474 cells. BT474 cell line was purchased from [NT] number HTB-20). Human Phospho-ErbB2 ELISA kit was purchased from R&D systems (catalog number DYC1768). Day 1: When the cells reach 70-90% confluence, cells were trypsinized and re-suspended. 5000 cells per well were seeded to a 384-well plate. The plate was incubated at 37° C. with 5% CO2 for 24 hours. ELISA plate was coated with 2 μg/ml capture antibody, which was incubated at 4° C. overnight. Day 2: 25 nl compounds was dosed by Echo from source plate and the 384-well plate was incubated at 37° C. for 2 hours. 30 μl lysis buffer was added to each well and the 384-well plate was shaken softly at 4° C. for 30 minutes. The ELISA plate was washed, blocked and incubated at room temperature for 1-2 hours. The blocked ELISA plate was washed and 20 μl cell lysate was transferred from the 384-well plate to the ELISA plate, which was incubated overnight at 4° C. Day 3: The ELISA plate was washed 3 times. 25 μl/well detection antibody was added (diluted 1 by 2000 in 1% BSA in PBS). After 2 hours of incubation with detection antibody, the ELISA plate was washed 3 times, 25 μl/well TMB substrate was added and incubated for 10-15 minutes before stop solution was added. Absorbance at 450 nm and 570 nm was read within 30 minutes after adding the stop solution. […] The IC50 results are provided in Table 1 for some exemplary compounds.

HER2, sequence (P04626 23-1255): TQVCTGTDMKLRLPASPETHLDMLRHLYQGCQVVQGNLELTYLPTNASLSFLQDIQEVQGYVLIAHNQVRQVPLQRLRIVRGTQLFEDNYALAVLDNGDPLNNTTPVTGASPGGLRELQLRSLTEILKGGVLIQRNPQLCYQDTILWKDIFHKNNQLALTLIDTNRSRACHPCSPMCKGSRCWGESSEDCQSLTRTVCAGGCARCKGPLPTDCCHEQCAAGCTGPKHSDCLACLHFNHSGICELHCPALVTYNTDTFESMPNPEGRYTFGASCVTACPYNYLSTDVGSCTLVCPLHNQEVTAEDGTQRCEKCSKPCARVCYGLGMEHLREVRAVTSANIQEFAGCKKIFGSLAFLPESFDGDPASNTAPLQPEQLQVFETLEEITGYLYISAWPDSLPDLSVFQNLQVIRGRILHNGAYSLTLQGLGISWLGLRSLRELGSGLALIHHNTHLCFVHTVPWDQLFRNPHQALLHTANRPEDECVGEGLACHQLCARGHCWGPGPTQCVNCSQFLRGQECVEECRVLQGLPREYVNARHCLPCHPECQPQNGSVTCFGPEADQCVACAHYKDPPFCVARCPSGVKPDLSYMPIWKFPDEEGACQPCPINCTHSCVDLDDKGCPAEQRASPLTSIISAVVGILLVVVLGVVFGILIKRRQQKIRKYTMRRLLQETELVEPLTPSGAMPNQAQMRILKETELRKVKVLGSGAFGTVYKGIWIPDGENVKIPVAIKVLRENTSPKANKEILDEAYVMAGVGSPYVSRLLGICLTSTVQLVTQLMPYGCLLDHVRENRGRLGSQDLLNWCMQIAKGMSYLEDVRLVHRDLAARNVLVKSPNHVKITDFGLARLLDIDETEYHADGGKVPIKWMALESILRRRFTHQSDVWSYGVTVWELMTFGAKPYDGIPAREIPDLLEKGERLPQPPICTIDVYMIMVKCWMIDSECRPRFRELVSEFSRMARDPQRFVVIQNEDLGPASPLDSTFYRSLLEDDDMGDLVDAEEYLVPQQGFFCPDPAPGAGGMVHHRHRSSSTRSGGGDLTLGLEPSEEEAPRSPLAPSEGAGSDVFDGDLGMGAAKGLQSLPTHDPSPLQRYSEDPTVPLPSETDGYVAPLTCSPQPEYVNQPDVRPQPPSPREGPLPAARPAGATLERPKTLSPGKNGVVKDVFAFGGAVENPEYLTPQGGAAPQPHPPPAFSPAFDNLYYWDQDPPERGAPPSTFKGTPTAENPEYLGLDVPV

| IC50 | Compound |
| --- | --- |
| 14 nM | [2H]C([2H])([2H])Oc1ccc2ncnc(Nc3ccc(Oc4cc5ncnn5cn4)c(C)c3)c2c1O[C@@H]1CCN(C([2H])([2H])[2H])CC1(F)F [Example 77, (R)—N-(4-([1,2,4]triazolo[1,5-c]pyrimidin-7-yloxy)-3-methylphenyl)-5-((3,3-difluoro-1-(methyl-d3)piperidin-4-yl)oxy)-6-(methoxy-d3)quinazolin-4-amine] |
| 225 nM | C=CC(=O)N1CC=C(c2ccc3ncnc(Nc4ccc(Oc5cc6ncnn6cn5)c(C)c4)c3c2O[C@@H]2CCN(C)CC2(F)F)CC1 [Example 81, (R)-1-(4-(4-((4-([1,2,4]triazolo[1,5-c]pyrimidin-7-yloxy)-3-methylphenyl)amino)-5-((3,3-difluoro-1-methylpiperidin-4-yl)oxy)quinazolin-6-yl)-3,6-dihydropyridin-1(2H)-yl)prop-2-en-1-one] |
| 170 nM | COc1cc2ncnc(Nc3ccc(Oc4cc5ncnn5cn4)c(C)c3)c2c(O[C@@H]2CCN(C)CC2(F)F)c1OC [Example 99, (R)—N-(4-([1,2,4]triazolo[1,5-c]pyrimidin-7-yloxy)-3-methylphenyl)-5-((3,3-difluoro-1-methylpiperidin-4-yl)oxy)-6,7-dimethoxyquinazolin-4-amine] |
| 207 nM | C=CC(=O)N1CCC=C(c2cc(N3CC(N(C)C)C3)c3c(Nc4ccc(Oc5cc6ncnn6cn5)c(C)c4)ncnc3c2)C1 [Example 84, 1-(5-(4-((4-([1,2,4]triazolo[1,5-c]pyrimidin-7-yloxy)-3-methylphenyl)amino)-5-(3-(dimethylamino)azetidin-1-yl)quinazolin-7-yl)-3,6-dihydropyridin-1(2H)-yl)prop-2-en-1-one] |
| 208 nM | COc1ccc2ncc(C#N)c(Nc3ccc(Oc4cc5ncnn5cn4)c(C)c3)c2c1O[C@@H]1CCN(C)CC1(F)F [Example 86, (R)-4-((4-([1,2,4]triazolo[1,5-c]pyrimidin-7-yloxy)-3-methylphenyl)amino)-5-((3,3-difluoro-1-methylpiperidin-4-yl)oxy)-6-methoxyquinoline-3-carbonitrile] |
| 51 nM | Cc1cc(Nc2ncnc3ccc(OC(F)(F)F)c(O[C@@H]4CCN(C)CC4(F)F)c23)ccc1Oc1cc2ncnn2cn1 [Example 72, (R)—N-(4-([1,2,4]-triazolo[1,5-c]pyrimidin-7-yloxy)-3-methylphenyl)-5-((3,3-difluoro-1-methylpiperidin-4-yl)oxy)-6-(trifluoromethoxy)quinazolin-4-amine] |
| 15 nM | Cc1cc(Nc2ncnc3ccc(O[C@H]4CCOC4)c(O[C@@H]4CCN(C)CC4(F)F)c23)ccc1Oc1cc2ncnn2cn1 [Example 21, N-(4-([1,2,4]triazolo[1,5-c]pyrimidin-7-yloxy)-3-methylphenyl)-5-(((R)-3,3-difluoro-1-methylpiperidin-4-yl)oxy)-6-(((S)-tetrahydrofuran-3-yl)oxy)quinazolin-4-amine] |
| 21 nM | Cc1cc(Nc2ncnc3ccc(O[C@H]4CCOC4)c(O[C@H]4CCN(C)CC4(F)F)c23)ccc1Oc1cc2ncnn2cn1 [Example 22, N-(4-([1,2,4]triazolo[1,5-c]pyrimidin-7-yloxy)-3-methylphenyl)-5-(((S)-3,3-difluoro-1-methylpiperidin-4-yl)oxy)-6-(((S)-tetrahydrofuran-3-yl)oxy)quinazolin-4-amine] |
| 17 nM | COc1ccc2ncnc(Nc3ccc(Oc4cc5ncnn5cn4)c(C)c3)c2c1N1CC2C1CCN2C1CC1 (stereo not shown) [Example 67, N-(4-([1,2,4]triazolo[1,5-c]pyrimidin-7-yloxy)-3-methylphenyl)-5-(2-cyclopropyl-2,6-diazabicyclo[3.2.0]heptan-6-yl)-6-methoxyquinazolin-4-amine] |
| 48 nM | Cc1cc(Nc2ncnc3ccc(OC(F)F)c(O[C@H]4CCN(C)CC4(F)F)c23)ccc1Oc1cc2ncnn2cn1 [Example 18, (S)—N-(4-([1,2,4]triazolo[1,5-c]pyrimidin-7-yloxy)-3-methylphenyl)-5-((3,3-difluoro-1-methylpiperidin-4-yl)oxy)-6-(difluoromethoxy)quinazolin-4-amine] |
